Test system: human Treg cells
Assay: Inhibitory activity of human Treg cells in in vitro assays of T cell stimulation (anti-CD3 or MLR, tritiated thymidine proliferation)
Type: cell-based
Conditions: all treatment groups (0.01 ug/ml, 0.1 ug/ml and 1 ug/ml), 72 hours culture; compared to controls that received scrambled peptide (FFSAFLSEC)
Method: Isolation of human CD4+, CD4+CD25+, and CD4+CD25− T cells was performed from PBMC by using human Treg isolation kits (Miltenyi Biotec), respectively, according to the manufacturer's instructions. The purity of the resulting T cell populations was confirmed to be >95% by flow cytometry.
Inhibitory activity of human Treg cells was measured in in vitro assays of T cell stimulation. CD25-depleted spleen cells (10^5 cells/well) from human PBMC (105) were stimulated in vitro with the following: anti-human CD3 Ab (BD Pharmingen) or human PBMC (105) from a different donor (to induce a MLR). Cultures were maintained for 72 hours in the presence of SAFFLFCSE peptide at concentrations of 0.01 ug/ml, 0.1 ug/ml and 1 ug/ml. Tritiated thymidine was added at a concentration of 1 microcurie per well for the last 12 hours of culture. Scintillation counting was used to assess proliferation.

SAFFLFCSE
inhibition of T regulatory cell suppressive activity: > 80%

From patent US20160022761A1, “DEREPRESSION OF IMMUNITY IN ONCOLOGICAL AND VIROLOGICAL CONDITIONS BY HIGH MOBILITY GROUP BOX 1 DERIVED PEPTIDES” (priority 2014, published 2016)
